# Reference: paper PMC2216842 (The Journal of General Physiology, 1994)
# Read-outs that look alike come from different tables or passages of the source.
# Experiments:
# [1] = test system: BTX-modified Na+ channels in GH3 cells; test: Whole-cell voltage clamp, voltage-ramp protocol; format: cell-based, rat; conditions: for effect of external Na+ ions on binding: 0 vs 130 mM external Na+; for voltage dependence of block / IC50: voltage ramp; for voltage dependence of block: quasi steady state; for change of binding after CT treatment: 0.5 mM CT 5 min; for IC50: no external Na+
# [2] = Solubility in test solution; conditions: external solution, from 500 mM DMSO stock
# [3] = test system: unmodified Na+ channels in GH3 cells; test: Whole-cell voltage clamp, tonic and use-dependent block of normal Na+ currents; format: cell-based, rat; conditions: 1 mM; for tonic block of normal Na+ currents: +30 mV test pulse, prepulse -130 mV; for use-dependent block of normal Na+ currents: repetitive +30 mV pulses, 25 ms at 5 Hz
# [4] = test system: BTX-modified Na+ channels in GH3 cells; format: cell-based, rat; conditions: for enhancement of the inactivation of BTX-modified Na+ channels: benzocaine derivatives
compound,measurement,setting,value
"CCOC(=O)c1ccc(N(C)C)cc1 [N-dimethyl benzocaine, ethyl p-dimethylamino-benzoate]",effect of external Na+ ions on binding,[1],no effect
same,voltage dependence of block,[1],enhanced by depolarization
same,solubility,[2],could not reliably dissolve N-dimethyl benzocaine at 3 mM even after heating
same,left shift in steady-state inactivation,[3],~ 10 mV
same,tonic block of normal Na+ currents,[3],produces a tonic block
same,use-dependent block of normal Na+ currents,[3],elicits additional use-dependent block
same,enhancement of the inactivation of BTX-modified Na+ channels,[4],failed to enhance the inactivation
"CCOC(=O)c1ccc(N)cc1 [benzocaine, Benzocaine]",effect of external Na+ ions on binding,[1],do not reduce benzocaine binding
same,change of binding after CT treatment,"[1]; measured from -75 mV to +50 mV, 1 and 3 mM",greatly reduced
same,shift of V0.5 toward the depolarizing direction,"[1]; 1 mM benzocaine on BTX-modified channels, 130 mM external Na+",about 20 mV
same,IC50,[1]; at +50 mV,~1200 µM
same,IC50,[1]; at -50 mV,300 µM
same,voltage dependence of block,[1],greater at the resting membrane potential (-50 to -90 mV) than at positive potentials (0 to +50 mV)
same,solubility,[2],poor solubility of benzocaine at concentrations higher than 3 mM
same,left shift in steady-state inactivation,[3],about 20 mV
same,tonic block of normal Na+ currents,[3],produces a tonic block
same,use-dependent block of normal Na+ currents,[3],fails to elicit additional use-dependent block
same,IC50,"[4]; read-out: concentration that inhibits 50% of BTX-modified Na+ currents (IC50), at -70 mV, GH3 cells",200 µM
"COC(=O)[C@H]1[C@@H](OC(=O)c2ccccc2)C[C@@H]2CC[C@H]1N2C [cocaine, (-)-cocaine]",change of binding after CT treatment,"[1]; from 0 to +50 mV, 0.1 or 0.3 mM",small reduction
same,change of binding after CT treatment,"[1]; from -50 mV to -30 mV, 0.1 or 0.3 mM",slightly enhanced
same,voltage dependence of block,[1],significantly stronger at +50 mV than at -50 mV
CCOC(=O)c1cccc(O)c1 [ethyl 3-hydroxy benzoate],enhancement of the inactivation of BTX-modified Na+ channels,[4],acted more or less as benzocaine
CCOC(=O)c1ccc(O)cc1 [ethyl 4-hydroxy benzoate],enhancement of the inactivation of BTX-modified Na+ channels,[4],acted more or less as benzocaine
COC(=O)c1ccc(N)cc1 [methyl 4-amino benzoate],enhancement of the inactivation of BTX-modified Na+ channels,[4],acted more or less as benzocaine
CCOC(=O)c1cccc(N)c1 [tricaine],enhancement of the inactivation of BTX-modified Na+ channels,[4],acted more or less as benzocaine
batrachotoxin [BTX],"activation threshold, more negative than that of normal Na+ currents","[1]; BTX-modified channels, threshold near -90 mV",~ 50 mV
